Assay [1] deals with ERα receptor. Kind of assay: PRα induction assay in MCF7 cells (ERα agonism). The class given is cell-based. The settings on record: Homo sapiens, 24 hours, agonist mode, read-out: Relative IC50 (μM), PRα induction. The method, then:
The purpose of the following PRα induction assay is to determine whether a test compound has agonistic activity against ERα receptor (an agonist would be expected to activate the receptor.)
Culture MCF7 (purchased from ATCC HTB-22) in DMEM media supplemented with 10% FBS, 0.01 mg/mL human insulin 1 and 1% penicillin/streptomycin antibiotics and plate the cells (prior to becoming 70% confluent) in 384-well flat-bottom plates at a density of 4,000 cells per well in 20 μL volume in DMEM phenol red free media containing 10% FBS (charcoal stripped). Incubate the cells overnight in a cell culture incubator (5% CO2, 95% relative humidity at 37° C.) and allow the cells to attach to the plate. The following day, dose the cells with test compound. Use an Echo 555 acoustic dispenser to prepare compound serial dilutions (1:3) in a range from 6 μM to 0.0003 μM. […]
The following day, wash cells with PBS 0.05% TWEEN® 20 (2×20 μL) and incubate with secondary antibody (20 μL/well) (1:1000 dilution, Goat anti-rabbit IgM ALEXA FLUOR™ 488) in PBS 1% BSA for 105 minutes at room temperature. […] Scan plates with ACUMEN EXPLORER™ [Laser-scanning fluorescence microplate cytometer manufactured by TTP LABTECH LTD] to measure progesterone receptor alpha. […]

Assay [2] concerns Y537N mutant ERα receptor. Kind of assay: PRα inhibition (ERα functional antagonism) cell assay in MCF7-ESR1 Y537N 682 CRISPR cells. The class given is cell-based. The settings on record: Homo sapiens; MCF7-ESR1 Y537N 682 cells, 72 hours, n=14; read-out: Relative IC50 (nM), PRα inhibition. The text has this: The purpose of the following PRα inhibition (ERα functional antagonism) cell assay is to determine the antagonistic activity of a test compound against the Y537N mutant ERα receptor. An antagonist in this assay is expected to block the function of the ERα receptor.
Culture MCF7-ESR1 Y537N-682 (generated by CRISPR/Cas9 gene editing of ESR1 gene in MCF7 cells, clone #682) in DMEM media supplemented with 10% FBS and 1% penicillin/streptomycin antibiotics and plate the cells (prior to becoming 70% confluent) in 384-well flat-bottom plates at a density of 4,000 cells per well in DMEM phenol red free media 10% FBS (20 μL volume) (charcoal stripped). Incubate the cells overnight in a cell culture incubator (5% CO2, 95% relative humidity and 37° C.) and allow the cells to attach to the plate. The following day dose the cells with the test compound. Use an Echo 555 acoustic dispenser to prepare compound serial dilutions (1:3) in a range from 6 μM to 0.0003 μM. […]
The following day, wash the cells with PBS […] (2×20 μL) and incubate with secondary antibody (20 μL/well) (1:1000 dilution, Goat anti-rabbit IgM ALEXA FLUOR™ 488) in PBS 1% BSA for 105 minutes at room temperature. […] Scan the plates with ACUMEN EXPLORER™ [Laser-scanning fluorescence microplate cytometer manufactured by TTP LABTECH LTD] to measure progesterone receptor alpha. […]

Consider `O=C(c1ccc(OCCN2CC(CF)C2)cc1)c1c(-c2ccc(C(F)(F)F)cc2F)cnc2cc(O)ccc12` [Example 1, (4-{2-[3-(Fluoromethyl)azetidin-1-yl]ethoxy}phenyl){3-[2-fluoro-4-(trifluoromethyl)phenyl]-7-hydroxyquinolin-4-yl}methanone], for which the results for the IC50 in assay [1] and in assay [2] were more than 2 µM and 7.6 ± 4.8 nM, respectively.

(Values after US12128040B2, “Selective estrogen receptor degraders” (Eli Lilly and Company, priority 2018, dated 2024).)
